ChEMBL document CHEMBL5518234, “Structure-Guided Discovery of Potent and Selective CLK2 Inhibitors for the Treatment of Knee Osteoarthritis” (J Med Chem, 2024)
pIC50: −log10 of the molar value.

Experiments:
[1] = molecular target: Dual specificity protein kinase CLK3 (Homo sapiens, UniProt P49761)
Description: Inhibition of CLK3 (unknown origin) incubated for 10 mins in presence of ATP

[2] = molecular target: T1, Dual specificity protein kinase CLK1 (Homo sapiens, UniProt P49759)
Target sequence in this assay (P49759 whole entry): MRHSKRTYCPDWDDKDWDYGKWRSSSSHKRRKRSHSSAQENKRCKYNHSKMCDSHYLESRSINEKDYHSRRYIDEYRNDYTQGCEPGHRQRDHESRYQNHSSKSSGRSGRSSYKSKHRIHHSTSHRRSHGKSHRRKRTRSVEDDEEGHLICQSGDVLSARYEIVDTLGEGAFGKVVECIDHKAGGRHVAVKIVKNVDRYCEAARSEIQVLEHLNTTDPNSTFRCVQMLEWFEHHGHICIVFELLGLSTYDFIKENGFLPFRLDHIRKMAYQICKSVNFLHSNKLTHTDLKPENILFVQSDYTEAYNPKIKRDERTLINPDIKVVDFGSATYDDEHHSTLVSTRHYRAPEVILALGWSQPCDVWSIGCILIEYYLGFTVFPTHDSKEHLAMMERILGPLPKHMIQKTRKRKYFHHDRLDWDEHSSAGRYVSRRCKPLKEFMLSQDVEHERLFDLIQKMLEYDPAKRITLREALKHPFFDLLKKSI
Description: Inhibition of CLK1 (unknown origin) incubated for 10 mins in presence of ATP

[3] = molecular target: Dual specificity tyrosine-phosphorylation-regulated kinase 1B (Homo sapiens) (UniProt Q9Y463); settings: dose 100.0 nM
Description: Inhibition of DYRK1B (unknown origin) at 100 nM relative to control

[4] = molecular target: Homeodomain-interacting protein kinase 2 (Homo sapiens) (UniProt Q9H2X6); settings: dose 100.0 nM
Description: Inhibition of HIPK2 (unknown origin) at 100 nM relative to control

[5] = molecular target: T2, Dual specificity protein kinase CLK4 (Homo sapiens, UniProt Q9HAZ1); settings: dose 100.0 nM
Target sequence in this assay (Q9HAZ1 whole entry, looked up): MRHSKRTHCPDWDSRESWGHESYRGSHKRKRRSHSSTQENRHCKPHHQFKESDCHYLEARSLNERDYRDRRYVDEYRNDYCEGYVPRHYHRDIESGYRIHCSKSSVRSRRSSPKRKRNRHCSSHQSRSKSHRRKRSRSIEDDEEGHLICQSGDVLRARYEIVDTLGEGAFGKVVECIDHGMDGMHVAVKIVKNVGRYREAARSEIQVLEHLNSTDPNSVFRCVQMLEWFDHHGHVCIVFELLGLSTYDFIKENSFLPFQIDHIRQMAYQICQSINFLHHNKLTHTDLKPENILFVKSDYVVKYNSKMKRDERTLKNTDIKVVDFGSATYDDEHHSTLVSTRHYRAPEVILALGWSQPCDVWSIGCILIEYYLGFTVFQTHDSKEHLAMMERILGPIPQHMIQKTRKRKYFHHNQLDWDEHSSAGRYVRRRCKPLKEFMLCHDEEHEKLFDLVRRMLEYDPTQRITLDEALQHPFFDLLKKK
Description: Inhibition of CLK4 (unknown origin) at 100 nM relative to control

[6] = molecular target: T3, Serine/arginine-rich splicing factor 6 (Rattus norvegicus) (UniProt G3V6S8); settings: Chondrocyte, dose 10-100 nM, time 1.0 hrs
T3 sequence (whole entry): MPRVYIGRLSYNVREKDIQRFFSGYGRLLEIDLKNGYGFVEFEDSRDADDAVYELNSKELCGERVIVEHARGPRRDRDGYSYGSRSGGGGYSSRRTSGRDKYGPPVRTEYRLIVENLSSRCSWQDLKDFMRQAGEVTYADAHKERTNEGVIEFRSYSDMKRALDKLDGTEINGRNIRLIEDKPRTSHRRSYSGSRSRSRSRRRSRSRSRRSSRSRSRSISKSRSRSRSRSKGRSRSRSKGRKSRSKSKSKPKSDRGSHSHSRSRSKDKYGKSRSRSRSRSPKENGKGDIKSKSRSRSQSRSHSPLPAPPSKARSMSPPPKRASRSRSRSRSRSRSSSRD

[7] = molecular target: Receptor-type tyrosine-protein kinase FLT3 (Homo sapiens) (UniProt P36888); settings: dose 100.0 nM
Description: Inhibition of FLT3 (unknown origin) at 100 nM relative to control

[8] = molecular target: TRAF2 and NCK-interacting protein kinase (Homo sapiens) (UniProt Q9UKE5); settings: dose 100.0 nM
Description: Inhibition of TNIK (unknown origin) at 100 nM relative to control

[9] = molecular target: Serine/threonine-protein kinase pim-3 (Homo sapiens) (UniProt Q86V86); settings: dose 100.0 nM
Description: Inhibition of PIM3 (unknown origin) at 100 nM relative to control

[10] = molecular target: T4, Dual specificity tyrosine-phosphorylation-regulated kinase 1A (Homo sapiens, UniProt Q13627); settings: dose 100.0 nM
Description: Inhibition of DYRKIA (unknown origin) at 100 nM relative to control

[11] = molecular target: T2, Dual specificity protein kinase CLK4
Target sequence in this assay (Q9HAZ1 whole entry): as the sequence (Q9HAZ1 whole entry, looked up) above
Description: Inhibition of CLK4 (unknown origin) incubated for 10 mins in presence of ATP

[12] = molecular target: T4, Dual specificity tyrosine-phosphorylation-regulated kinase 1A
Description: Inhibition of DYRK1A (unknown origin) incubated for 10 mins in presence of ATP

[13] = molecular target: T1, Dual specificity protein kinase CLK1; settings: dose 100.0 nM
Target sequence in this assay (P49759 whole entry, looked up): as the sequence (P49759 whole entry) above
Description: Inhibition of CLK1 (unknown origin) at 100 nM relative to control

[14] = molecular target: Dual specificity protein kinase CLK2 (Homo sapiens, UniProt P49760)
Sequence of Dual specificity protein kinase CLK2 (P49760 whole entry): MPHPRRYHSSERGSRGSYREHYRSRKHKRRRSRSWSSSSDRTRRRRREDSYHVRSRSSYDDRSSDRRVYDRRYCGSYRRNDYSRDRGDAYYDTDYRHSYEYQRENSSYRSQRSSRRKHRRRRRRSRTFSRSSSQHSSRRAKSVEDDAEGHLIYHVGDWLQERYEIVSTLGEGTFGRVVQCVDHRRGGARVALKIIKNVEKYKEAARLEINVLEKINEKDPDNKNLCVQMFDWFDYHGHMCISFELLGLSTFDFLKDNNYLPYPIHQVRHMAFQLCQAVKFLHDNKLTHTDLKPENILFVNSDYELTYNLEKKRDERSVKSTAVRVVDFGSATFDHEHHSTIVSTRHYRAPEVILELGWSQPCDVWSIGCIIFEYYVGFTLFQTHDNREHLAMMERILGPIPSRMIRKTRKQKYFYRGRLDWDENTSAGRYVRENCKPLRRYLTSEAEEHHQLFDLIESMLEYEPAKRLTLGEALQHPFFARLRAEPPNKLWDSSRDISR
Description: Inhibition of CLK2 (unknown origin) incubated for 10 mins in presence of ATP

Sequence of Dual specificity protein kinase CLK3 (P49761 whole entry): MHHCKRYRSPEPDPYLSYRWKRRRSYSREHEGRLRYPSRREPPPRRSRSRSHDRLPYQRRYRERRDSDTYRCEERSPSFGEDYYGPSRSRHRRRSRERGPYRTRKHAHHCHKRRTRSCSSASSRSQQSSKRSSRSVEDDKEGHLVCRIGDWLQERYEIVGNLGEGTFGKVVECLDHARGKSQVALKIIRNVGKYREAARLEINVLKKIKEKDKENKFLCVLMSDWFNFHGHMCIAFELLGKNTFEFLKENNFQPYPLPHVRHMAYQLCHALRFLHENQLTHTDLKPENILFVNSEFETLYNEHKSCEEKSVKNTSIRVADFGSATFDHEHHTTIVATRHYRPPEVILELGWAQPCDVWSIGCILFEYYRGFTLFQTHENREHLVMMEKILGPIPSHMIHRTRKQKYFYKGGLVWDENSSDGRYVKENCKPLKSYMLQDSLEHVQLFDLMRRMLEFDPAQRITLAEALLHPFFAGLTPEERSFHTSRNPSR
Sequence of Receptor-type tyrosine-protein kinase FLT3 (Homo sapiens) (P36888 whole entry): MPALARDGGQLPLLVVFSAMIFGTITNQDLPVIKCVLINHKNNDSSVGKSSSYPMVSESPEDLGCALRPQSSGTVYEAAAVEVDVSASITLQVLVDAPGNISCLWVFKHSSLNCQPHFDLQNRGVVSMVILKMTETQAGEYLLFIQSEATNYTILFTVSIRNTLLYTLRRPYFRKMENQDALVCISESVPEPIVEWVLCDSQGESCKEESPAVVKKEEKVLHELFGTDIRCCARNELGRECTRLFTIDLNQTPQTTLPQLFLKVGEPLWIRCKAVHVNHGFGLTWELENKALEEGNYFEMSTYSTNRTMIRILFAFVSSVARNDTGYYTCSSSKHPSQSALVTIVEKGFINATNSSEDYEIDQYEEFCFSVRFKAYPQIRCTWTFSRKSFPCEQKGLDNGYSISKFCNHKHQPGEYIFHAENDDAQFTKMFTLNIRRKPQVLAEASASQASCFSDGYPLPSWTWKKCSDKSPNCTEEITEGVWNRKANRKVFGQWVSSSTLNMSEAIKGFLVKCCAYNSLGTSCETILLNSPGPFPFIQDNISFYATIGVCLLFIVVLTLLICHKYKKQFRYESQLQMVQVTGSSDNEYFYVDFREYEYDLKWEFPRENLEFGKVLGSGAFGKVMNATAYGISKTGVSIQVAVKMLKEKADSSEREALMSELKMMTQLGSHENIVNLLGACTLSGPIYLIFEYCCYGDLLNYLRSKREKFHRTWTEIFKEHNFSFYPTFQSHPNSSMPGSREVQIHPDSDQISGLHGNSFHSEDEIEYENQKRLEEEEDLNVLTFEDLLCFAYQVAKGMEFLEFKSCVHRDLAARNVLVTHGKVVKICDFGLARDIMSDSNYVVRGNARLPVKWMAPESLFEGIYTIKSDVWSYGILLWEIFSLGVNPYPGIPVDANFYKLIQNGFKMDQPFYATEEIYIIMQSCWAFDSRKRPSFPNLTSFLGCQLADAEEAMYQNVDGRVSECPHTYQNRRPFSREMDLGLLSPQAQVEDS
Sequence of TRAF2 and NCK-interacting protein kinase (Homo sapiens) (Q9UKE5 whole entry, looked up): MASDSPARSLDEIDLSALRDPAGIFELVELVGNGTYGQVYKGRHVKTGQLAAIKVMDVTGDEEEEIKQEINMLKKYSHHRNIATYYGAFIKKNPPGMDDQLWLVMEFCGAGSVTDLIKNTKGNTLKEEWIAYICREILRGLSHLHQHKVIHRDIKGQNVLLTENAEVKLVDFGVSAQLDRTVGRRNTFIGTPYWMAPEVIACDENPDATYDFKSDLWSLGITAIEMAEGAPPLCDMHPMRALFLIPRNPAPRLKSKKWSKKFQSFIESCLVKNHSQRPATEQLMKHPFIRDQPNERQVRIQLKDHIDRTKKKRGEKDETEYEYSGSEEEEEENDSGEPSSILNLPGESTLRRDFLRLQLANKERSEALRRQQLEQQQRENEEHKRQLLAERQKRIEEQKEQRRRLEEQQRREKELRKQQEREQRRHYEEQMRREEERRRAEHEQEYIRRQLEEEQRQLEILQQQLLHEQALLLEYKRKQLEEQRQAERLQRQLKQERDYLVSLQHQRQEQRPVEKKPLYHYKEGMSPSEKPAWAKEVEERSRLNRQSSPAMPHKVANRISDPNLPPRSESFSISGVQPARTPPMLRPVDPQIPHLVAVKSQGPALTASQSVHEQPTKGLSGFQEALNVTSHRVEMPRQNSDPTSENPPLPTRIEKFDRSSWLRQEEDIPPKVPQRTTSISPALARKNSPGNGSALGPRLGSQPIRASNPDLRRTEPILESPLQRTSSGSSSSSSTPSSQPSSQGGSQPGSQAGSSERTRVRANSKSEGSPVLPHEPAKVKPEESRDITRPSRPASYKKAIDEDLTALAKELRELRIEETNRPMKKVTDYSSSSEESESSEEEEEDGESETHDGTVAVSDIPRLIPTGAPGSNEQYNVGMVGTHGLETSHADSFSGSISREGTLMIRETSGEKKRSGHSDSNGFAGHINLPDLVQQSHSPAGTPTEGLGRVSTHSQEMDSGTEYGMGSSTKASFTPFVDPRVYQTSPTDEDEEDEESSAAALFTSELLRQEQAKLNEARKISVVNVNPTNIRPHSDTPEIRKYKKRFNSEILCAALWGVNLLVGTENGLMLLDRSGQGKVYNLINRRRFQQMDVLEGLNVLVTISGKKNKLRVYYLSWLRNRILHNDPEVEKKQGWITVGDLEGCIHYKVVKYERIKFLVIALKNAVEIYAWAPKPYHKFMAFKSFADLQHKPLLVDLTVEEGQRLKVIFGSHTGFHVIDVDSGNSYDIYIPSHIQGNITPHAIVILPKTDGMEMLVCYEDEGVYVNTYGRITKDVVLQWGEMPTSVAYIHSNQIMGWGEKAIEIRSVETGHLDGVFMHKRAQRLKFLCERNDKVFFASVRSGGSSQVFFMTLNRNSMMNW

Question: How did the pIC50 [1] turn out when `CC(C)C[C@H](N)COc1cncc(-c2ccc3[nH]nc(C#Cc4cccc(F)c4)c3c2)c1` was run?
Answer: < 7.00

Question: How did the pIC50 [2] turn out when `CC(C)C[C@H](N)COc1cncc(-c2ccc3[nH]nc(C#Cc4ccsc4)c3c2)c1` was run?
Answer: 7.68

Question: And the inhibition [3]?
Answer: 94.7%

Question: And the inhibition [4]?
Answer: 93.1%

Question: What about the inhibition [5] of the same compound?
Answer: 94.4%

Question: And the inhibition [6]?
Answer: Dose-Dependent Effect

Question: And the pIC50 [1]?
Answer: < 7.00

Question: And the inhibition [7]?
Answer: 96%

Question: And the inhibition [8]?
Answer: 94.1%

Question: And the inhibition [9]?
Answer: 92.4%

Question: And the inhibition [10]?
Answer: 93.2%

Question: What about the pIC50 [11] of the same compound?
Answer: 8.49

Question: What about the pIC50 [12] of the same compound?
Answer: 7.66

Question: And the inhibition [13]?
Answer: 97.2%

Question: `CC(C)CC(=O)Nc1cncc(-c2ccc3[nH]nc(C#Cc4ncccn4)c3c2)c1` was tested. Which pIC50 [1] did it give?
Answer: < 7.00

Question: `CC(C)CC(=O)Nc1cncc(-c2ccc3[nH]nc(C#Cc4cccc(C(=O)O)c4)c3c2)c1` was tested. Which pIC50 [1] did it give?
Answer: < 7.00

Question: How did the pIC50 [1] turn out when `CC(C)CC(=O)Nc1cncc(-c2ccc3[nH]nc(C#Cc4ccc5cnccc5c4)c3c2)c1` was run?
Answer: < 7.00

Question: With `CC(C)CC(=O)Nc1cncc(-c2ccc3[nH]nc(C#Cc4ccncc4)c3c2)c1` as the compound, how does the pIC50 [1] read?
Answer: < 7.00

Question: How did the pIC50 [1] turn out when `CC(C)CC(=O)Nc1cncc(-c2ccc3[nH]nc(C#Cc4ccc5ccccc5n4)c3c2)c1` was run?
Answer: < 7.00

Question: How did the pIC50 [14] turn out when `CC(C)CC(=O)Nc1cncc(-c2ccc3[nH]nc(C#Cc4ccc(C=O)cc4)c3c2)c1` was run?
Answer: 7.99

Question: What about the pIC50 [1] of the same compound?
Answer: < 7.00

Question: How did the pIC50 [1] turn out when `CC(C)C[C@H](N)COc1cncc(-c2ccc3[nH]nc(C#CC4CC4)c3c2)c1` was run?
Answer: < 7.00

Question: `CC(C)CC(=O)Nc1cncc(-c2ccc3[nH]nc(C#Cc4ccccc4Cl)c3c2)c1` was tested. Which pIC50 [1] did it give?
Answer: < 7.00

Question: With `Cc1[nH]nc2ccc(-c3cncc(OC[C@@H](N)CC(C)C)c3)cc12` as the compound, how does the pIC50 [14] read?
Answer: 7.91

Question: And the pIC50 [1]?
Answer: < 7.00

Question: And the pIC50 [12]?
Answer: 7.43

Question: How did the pIC50 [1] turn out when `CC(C)CC(=O)Nc1cncc(-c2ccc3[nH]nc(C#CC4CC4)c3c2)c1` was run?
Answer: < 7.00

Question: Which results are given for `C(#Cc1n[nH]c2ccc(-c3cncc(OCC4CCCN4)c3)cc12)c1ccsc1` (stereo not given)?
Answer: pIC50 [14]: 8.00; pIC50 [1]: < 7.00

Question: `CC(C)CC(=O)Nc1cncc(-c2ccc3[nH]nc(C#Cc4cccnc4)c3c2)c1` was tested. Which pIC50 [1] did it give?
Answer: 7.81
